Test results taken from the kinase profiling compilation of Christmann-Franck et al. (2016).

Key:
Assay in all cases: KINOMEscan competition binding
Conditions in all cases: compound 1.0 µM
[1] = biological target: FER (human) (UniProt P16591)
[2] = biological target: EPHA7 (human) (UniProt Q15375)
[3] = biological target: MELK (human) (UniProt Q14680)
[4] = biological target: NEK7 (human) (UniProt Q8TDX7)
[5] = biological target: EPHA8 (human) (UniProt P29322)
[6] = biological target: HCK (human) (UniProt P08631)
[7] = system: EGFR (human), P00533 [G719C]
[8] = biological target: TNK1 (human) (UniProt Q13470)
[9] = biological target: STK32A (human) (UniProt Q8WU08)
[10] = biological target: ABL2 (human) (UniProt P42684)
[11] = biological target: CAMK2B (human) (UniProt Q13554)
[12] = biological target: NEK3 (human) (UniProt P51956)
[13] = system: EGFR (human), P00533 [G719S]
[14] = biological target: ACVRL1 (human) (UniProt P37023)
[15] = biological target: PRKG2 (human) (UniProt Q13237)
[16] = biological target: CSNK2A2 (human) (UniProt P19784)
[17] = biological target: CDKL1 (human) (UniProt Q00532)
[18] = biological target: GRK7 (human) (UniProt Q8WTQ7)
[19] = biological target: EPHA1 (human) (UniProt P21709)
EPHA1 (human), sequence (P21709 whole entry, looked up): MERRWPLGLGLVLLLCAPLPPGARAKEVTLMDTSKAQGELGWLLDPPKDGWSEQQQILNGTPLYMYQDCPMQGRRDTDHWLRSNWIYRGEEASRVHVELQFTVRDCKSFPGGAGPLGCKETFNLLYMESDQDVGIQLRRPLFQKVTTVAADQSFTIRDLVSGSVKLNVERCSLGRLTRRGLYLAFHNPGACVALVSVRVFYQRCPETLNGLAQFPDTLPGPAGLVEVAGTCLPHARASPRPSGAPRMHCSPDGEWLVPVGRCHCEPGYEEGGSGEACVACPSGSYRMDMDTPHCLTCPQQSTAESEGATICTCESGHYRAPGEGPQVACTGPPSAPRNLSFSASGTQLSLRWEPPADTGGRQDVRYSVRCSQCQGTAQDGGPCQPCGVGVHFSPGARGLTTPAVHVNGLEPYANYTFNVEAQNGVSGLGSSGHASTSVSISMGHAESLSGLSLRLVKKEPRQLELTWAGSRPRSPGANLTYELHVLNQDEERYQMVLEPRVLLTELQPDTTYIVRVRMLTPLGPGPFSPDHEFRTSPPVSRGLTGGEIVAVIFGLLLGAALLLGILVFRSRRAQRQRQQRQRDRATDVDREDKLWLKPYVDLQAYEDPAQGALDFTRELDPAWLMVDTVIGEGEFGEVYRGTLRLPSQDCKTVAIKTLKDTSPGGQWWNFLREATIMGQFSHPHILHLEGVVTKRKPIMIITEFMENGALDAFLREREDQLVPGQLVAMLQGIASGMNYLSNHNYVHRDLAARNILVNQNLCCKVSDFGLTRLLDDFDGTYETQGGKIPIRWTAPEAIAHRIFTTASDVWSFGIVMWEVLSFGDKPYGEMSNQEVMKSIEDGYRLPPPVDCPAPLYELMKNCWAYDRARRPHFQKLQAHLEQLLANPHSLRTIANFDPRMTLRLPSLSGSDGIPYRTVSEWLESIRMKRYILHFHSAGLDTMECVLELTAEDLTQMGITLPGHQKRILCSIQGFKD

[20] = biological target: MAPK7 (human) (UniProt Q13164)
[21] = biological target: MAP4K1 (human) (UniProt Q92918)
MAP4K1 (human), sequence (Q92918 whole entry, looked up): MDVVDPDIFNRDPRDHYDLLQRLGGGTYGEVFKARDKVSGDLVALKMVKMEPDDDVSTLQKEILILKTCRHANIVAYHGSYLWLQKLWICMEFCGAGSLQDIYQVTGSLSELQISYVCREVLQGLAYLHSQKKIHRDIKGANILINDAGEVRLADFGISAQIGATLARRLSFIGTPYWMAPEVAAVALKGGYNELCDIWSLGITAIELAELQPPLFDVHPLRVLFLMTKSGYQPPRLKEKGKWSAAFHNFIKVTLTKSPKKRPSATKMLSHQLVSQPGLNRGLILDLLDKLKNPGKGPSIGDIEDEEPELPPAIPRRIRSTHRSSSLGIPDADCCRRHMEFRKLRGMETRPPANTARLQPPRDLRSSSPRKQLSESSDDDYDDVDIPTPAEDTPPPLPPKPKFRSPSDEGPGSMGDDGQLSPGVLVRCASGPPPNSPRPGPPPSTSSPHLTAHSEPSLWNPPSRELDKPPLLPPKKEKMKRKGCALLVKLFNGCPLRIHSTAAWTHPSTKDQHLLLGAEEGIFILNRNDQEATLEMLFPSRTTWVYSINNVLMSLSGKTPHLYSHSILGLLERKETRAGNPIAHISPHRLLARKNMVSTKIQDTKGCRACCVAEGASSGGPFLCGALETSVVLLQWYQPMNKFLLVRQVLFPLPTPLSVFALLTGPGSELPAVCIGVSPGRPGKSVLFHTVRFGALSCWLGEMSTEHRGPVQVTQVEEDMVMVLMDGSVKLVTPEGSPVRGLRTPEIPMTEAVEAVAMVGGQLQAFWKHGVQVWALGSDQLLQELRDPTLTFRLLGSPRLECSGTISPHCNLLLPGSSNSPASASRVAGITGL

[22] = biological target: VRK2 (human) (UniProt Q86Y07)
VRK2 (human), sequence (Q86Y07 whole entry, looked up): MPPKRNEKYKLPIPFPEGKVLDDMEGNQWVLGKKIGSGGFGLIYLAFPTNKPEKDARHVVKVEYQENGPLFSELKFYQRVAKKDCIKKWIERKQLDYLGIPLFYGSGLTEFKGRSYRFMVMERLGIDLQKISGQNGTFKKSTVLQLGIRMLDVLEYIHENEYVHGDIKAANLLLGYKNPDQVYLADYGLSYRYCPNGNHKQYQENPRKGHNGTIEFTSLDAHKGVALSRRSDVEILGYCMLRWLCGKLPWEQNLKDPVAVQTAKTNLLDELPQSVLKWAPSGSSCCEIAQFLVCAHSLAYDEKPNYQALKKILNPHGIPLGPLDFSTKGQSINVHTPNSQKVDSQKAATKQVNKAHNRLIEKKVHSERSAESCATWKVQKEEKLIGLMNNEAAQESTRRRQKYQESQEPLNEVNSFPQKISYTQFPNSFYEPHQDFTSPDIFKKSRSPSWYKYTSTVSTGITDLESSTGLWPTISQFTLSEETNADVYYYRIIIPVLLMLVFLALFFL

[23] = system: RET (human), P07949 [V804M]
[24] = system: MET (human), P08581 [M1250T]
[25] = biological target: MAPKAPK5 (human) (UniProt Q8IW41)
[26] = biological target: EIF2AK1 (human) (UniProt Q9BQI3)
[27] = biological target: YES1 (human) (UniProt P07947)
[28] = biological target: AKT1 (human) (UniProt P31749)
[29] = biological target: GRK4 (human) (UniProt P32298)
GRK4 (human), sequence (P32298 whole entry, looked up): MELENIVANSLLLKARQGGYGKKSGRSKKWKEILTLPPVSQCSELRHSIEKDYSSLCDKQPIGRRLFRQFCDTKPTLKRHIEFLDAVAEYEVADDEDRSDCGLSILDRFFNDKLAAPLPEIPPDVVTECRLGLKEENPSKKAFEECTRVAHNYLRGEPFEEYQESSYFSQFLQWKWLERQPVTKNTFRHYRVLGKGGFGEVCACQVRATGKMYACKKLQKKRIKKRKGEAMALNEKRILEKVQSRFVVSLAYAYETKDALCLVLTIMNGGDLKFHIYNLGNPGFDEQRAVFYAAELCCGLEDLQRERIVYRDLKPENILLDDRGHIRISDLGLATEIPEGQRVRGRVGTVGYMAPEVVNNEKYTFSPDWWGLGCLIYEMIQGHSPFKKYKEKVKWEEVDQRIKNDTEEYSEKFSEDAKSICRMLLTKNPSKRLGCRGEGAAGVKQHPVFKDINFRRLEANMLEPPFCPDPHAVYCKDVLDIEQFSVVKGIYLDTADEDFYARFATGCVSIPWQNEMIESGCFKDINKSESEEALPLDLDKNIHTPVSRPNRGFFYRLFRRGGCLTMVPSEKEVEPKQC

[30] = biological target: MLTK (human) (UniProt Q9NYL2)
[31] = biological target: MKNK2 (human) (UniProt Q9HBH9)
[32] = biological target: INSR (human) (UniProt P06213)
[33] = biological target: RPS6KA3 KD1 (human) (UniProt P51812)
[34] = system: FLT3 (human), P36888 [ITD]
[35] = biological target: DAPK3 (human) (UniProt O43293)
[36] = biological target: TGFBR2 (human) (UniProt P37173)
[37] = biological target: GAK (human) (UniProt O14976)
[38] = biological target: FES (human) (UniProt P07332)
FES (human), sequence (P07332 whole entry, looked up): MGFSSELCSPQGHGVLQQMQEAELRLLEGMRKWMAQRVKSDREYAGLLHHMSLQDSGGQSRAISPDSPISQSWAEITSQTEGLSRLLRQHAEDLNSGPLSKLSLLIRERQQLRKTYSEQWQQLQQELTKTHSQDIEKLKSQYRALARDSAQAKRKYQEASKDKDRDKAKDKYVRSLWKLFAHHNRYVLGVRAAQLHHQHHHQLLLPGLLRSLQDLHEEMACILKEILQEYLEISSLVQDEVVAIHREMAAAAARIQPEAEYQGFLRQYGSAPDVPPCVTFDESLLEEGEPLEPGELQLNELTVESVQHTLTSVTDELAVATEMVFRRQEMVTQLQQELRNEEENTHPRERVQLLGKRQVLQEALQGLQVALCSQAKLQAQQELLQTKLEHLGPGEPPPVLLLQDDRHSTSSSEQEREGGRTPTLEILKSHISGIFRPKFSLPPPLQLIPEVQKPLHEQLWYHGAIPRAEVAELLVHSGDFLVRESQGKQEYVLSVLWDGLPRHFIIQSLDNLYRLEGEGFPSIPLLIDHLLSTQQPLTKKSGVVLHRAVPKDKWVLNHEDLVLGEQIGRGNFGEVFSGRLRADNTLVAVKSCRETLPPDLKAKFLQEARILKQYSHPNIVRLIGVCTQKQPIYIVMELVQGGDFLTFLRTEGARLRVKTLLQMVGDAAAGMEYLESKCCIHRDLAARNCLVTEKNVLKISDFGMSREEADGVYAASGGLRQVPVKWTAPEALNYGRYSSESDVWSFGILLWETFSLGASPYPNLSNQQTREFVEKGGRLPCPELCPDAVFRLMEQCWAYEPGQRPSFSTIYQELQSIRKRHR

[39] = biological target: STK35 (human) (UniProt Q8TDR2)
[40] = biological target: EPHB1 (human) (UniProt P54762)
EPHB1 (human), sequence (P54762 whole entry, looked up): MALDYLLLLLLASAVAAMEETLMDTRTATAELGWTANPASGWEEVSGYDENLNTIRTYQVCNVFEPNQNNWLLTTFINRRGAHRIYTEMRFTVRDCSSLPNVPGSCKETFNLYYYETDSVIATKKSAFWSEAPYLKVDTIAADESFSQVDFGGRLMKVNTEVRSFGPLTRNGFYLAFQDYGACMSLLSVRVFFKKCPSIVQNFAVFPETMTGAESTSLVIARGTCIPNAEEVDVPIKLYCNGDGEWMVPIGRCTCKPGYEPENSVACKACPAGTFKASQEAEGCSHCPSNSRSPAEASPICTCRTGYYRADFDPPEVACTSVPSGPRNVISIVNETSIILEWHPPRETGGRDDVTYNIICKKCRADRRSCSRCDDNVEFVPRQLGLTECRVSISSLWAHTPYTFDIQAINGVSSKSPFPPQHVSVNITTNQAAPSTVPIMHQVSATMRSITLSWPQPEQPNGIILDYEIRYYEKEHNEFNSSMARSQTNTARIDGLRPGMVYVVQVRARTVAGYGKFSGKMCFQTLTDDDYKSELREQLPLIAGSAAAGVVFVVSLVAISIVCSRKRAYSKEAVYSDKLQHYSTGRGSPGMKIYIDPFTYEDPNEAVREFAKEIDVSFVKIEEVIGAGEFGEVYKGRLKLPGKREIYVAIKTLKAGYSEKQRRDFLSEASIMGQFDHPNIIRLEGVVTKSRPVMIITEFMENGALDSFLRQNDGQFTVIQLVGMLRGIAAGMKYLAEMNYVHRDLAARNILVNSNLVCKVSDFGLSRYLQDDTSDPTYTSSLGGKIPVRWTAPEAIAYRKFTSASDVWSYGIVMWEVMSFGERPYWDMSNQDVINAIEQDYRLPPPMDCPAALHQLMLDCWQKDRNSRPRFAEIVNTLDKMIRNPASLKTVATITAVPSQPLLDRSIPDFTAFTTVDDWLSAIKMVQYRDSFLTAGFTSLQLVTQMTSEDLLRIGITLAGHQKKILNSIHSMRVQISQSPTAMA

[41] = biological target: MAP3K4 (human) (UniProt Q9Y6R4)
[42] = biological target: PRKCD (human) (UniProt Q05655)
[43] = biological target: MAPK13 (human) (UniProt O15264)

NEK7 (human), sequence (Q8TDX7 whole entry, looked up): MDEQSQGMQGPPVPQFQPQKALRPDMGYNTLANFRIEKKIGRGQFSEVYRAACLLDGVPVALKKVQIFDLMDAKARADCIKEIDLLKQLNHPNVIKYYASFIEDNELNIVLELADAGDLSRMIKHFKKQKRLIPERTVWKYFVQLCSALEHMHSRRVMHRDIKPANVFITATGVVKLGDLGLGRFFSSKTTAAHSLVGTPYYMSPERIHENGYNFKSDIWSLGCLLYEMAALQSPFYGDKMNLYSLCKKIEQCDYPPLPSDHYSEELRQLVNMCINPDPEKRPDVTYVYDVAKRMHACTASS

CN(C)C/C=C/C(=O)Nc1cccc(C(=O)Nc2ccc(Nc3nccc(/C(C#N)=C4\Nc5ccccc5S4)n3)cc2)c1
kinase still bound, per cent of control [1]: 82%
kinase still bound, per cent of control [2]: 100%
kinase still bound, per cent of control [3]: 100%
kinase still bound, per cent of control [4]: 100%
kinase still bound, per cent of control [5]: 100%
kinase still bound, per cent of control [6]: 100%
kinase still bound, per cent of control [7]: 86%
kinase still bound, per cent of control [8]: 15%
kinase still bound, per cent of control [9]: 100%
kinase still bound, per cent of control [10]: 100%
kinase still bound, per cent of control [11]: 100%
kinase still bound, per cent of control [12]: 100%
kinase still bound, per cent of control [13]: 100%
kinase still bound, per cent of control [14]: 100%
kinase still bound, per cent of control [15]: 100%
kinase still bound, per cent of control [16]: 8%
kinase still bound, per cent of control [17]: 66%
kinase still bound, per cent of control [18]: 81%
kinase still bound, per cent of control [19]: 89%
kinase still bound, per cent of control [20]: 100%
kinase still bound, per cent of control [21]: 100%
kinase still bound, per cent of control [22]: 100%
kinase still bound, per cent of control [23]: 100%
kinase still bound, per cent of control [24]: 79%
kinase still bound, per cent of control [25]: 100%
kinase still bound, per cent of control [26]: 100%
kinase still bound, per cent of control [27]: 100%
kinase still bound, per cent of control [28]: 6.6%
kinase still bound, per cent of control [29]: 78%
kinase still bound, per cent of control [30]: 98%
kinase still bound, per cent of control [31]: 68%
kinase still bound, per cent of control [32]: 100%
kinase still bound, per cent of control [33]: 87%
kinase still bound, per cent of control [34]: 57%
kinase still bound, per cent of control [35]: 100%
kinase still bound, per cent of control [36]: 100%
kinase still bound, per cent of control [37]: 79%
kinase still bound, per cent of control [38]: 100%
kinase still bound, per cent of control [39]: 97%
kinase still bound, per cent of control [40]: 100%
kinase still bound, per cent of control [41]: 100%
kinase still bound, per cent of control [42]: 47%
kinase still bound, per cent of control [43]: 86%

CN(C)C/C=C/C(=O)Nc1cccc(C(=O)Nc2ccc(Nc3nccc(-c4cccnc4)n3)cc2)c1
kinase still bound, per cent of control [1]: 100%
kinase still bound, per cent of control [2]: 86%
kinase still bound, per cent of control [3]: 30%
kinase still bound, per cent of control [4]: 7%
kinase still bound, per cent of control [5]: 90%
kinase still bound, per cent of control [6]: 100%
kinase still bound, per cent of control [7]: 48%
kinase still bound, per cent of control [8]: 67%
kinase still bound, per cent of control [9]: 100%
kinase still bound, per cent of control [10]: 79%
kinase still bound, per cent of control [11]: 82%
kinase still bound, per cent of control [12]: 6.8%
kinase still bound, per cent of control [13]: 78%
kinase still bound, per cent of control [14]: 100%
kinase still bound, per cent of control [15]: 82%
kinase still bound, per cent of control [16]: 13%
kinase still bound, per cent of control [17]: 54%
kinase still bound, per cent of control [18]: 86%
kinase still bound, per cent of control [19]: 95%
kinase still bound, per cent of control [20]: 100%
kinase still bound, per cent of control [21]: 79%
kinase still bound, per cent of control [22]: 98%
kinase still bound, per cent of control [23]: 100%
kinase still bound, per cent of control [24]: 100%
kinase still bound, per cent of control [25]: 68%
kinase still bound, per cent of control [26]: 100%
kinase still bound, per cent of control [27]: 98%
kinase still bound, per cent of control [28]: 87%
kinase still bound, per cent of control [29]: 32%
kinase still bound, per cent of control [30]: 46%
kinase still bound, per cent of control [31]: 13%
kinase still bound, per cent of control [32]: 100%
kinase still bound, per cent of control [33]: 100%
kinase still bound, per cent of control [34]: 16%
kinase still bound, per cent of control [35]: 65%
kinase still bound, per cent of control [36]: 76%
kinase still bound, per cent of control [37]: 33%
kinase still bound, per cent of control [38]: 100%
kinase still bound, per cent of control [39]: 67%
kinase still bound, per cent of control [40]: 92%
kinase still bound, per cent of control [41]: 88%
kinase still bound, per cent of control [42]: 76%
kinase still bound, per cent of control [43]: 100%

Cc1cc(NC(=O)c2cccc(NC(=O)/C=C/CN(C)C)c2)ccc1Nc1nccc(-c2cccnc2)n1
kinase still bound, per cent of control [1]: 100%
kinase still bound, per cent of control [2]: 100%
kinase still bound, per cent of control [3]: 71%
kinase still bound, per cent of control [4]: 100%
kinase still bound, per cent of control [5]: 100%
kinase still bound, per cent of control [6]: 100%
kinase still bound, per cent of control [7]: 81%
kinase still bound, per cent of control [8]: 60%
kinase still bound, per cent of control [9]: 78%
kinase still bound, per cent of control [10]: 97%
kinase still bound, per cent of control [11]: 100%
kinase still bound, per cent of control [12]: 73%
kinase still bound, per cent of control [13]: 90%
kinase still bound, per cent of control [14]: 96%
kinase still bound, per cent of control [15]: 97%
kinase still bound, per cent of control [16]: 39%
kinase still bound, per cent of control [17]: 88%
kinase still bound, per cent of control [18]: 72%
kinase still bound, per cent of control [19]: 99%
kinase still bound, per cent of control [20]: 100%
kinase still bound, per cent of control [21]: 89%
kinase still bound, per cent of control [22]: 97%
kinase still bound, per cent of control [23]: 100%
kinase still bound, per cent of control [24]: 6.2%
kinase still bound, per cent of control [25]: 74%
kinase still bound, per cent of control [26]: 100%
kinase still bound, per cent of control [27]: 86%
kinase still bound, per cent of control [28]: 100%
kinase still bound, per cent of control [29]: 96%
kinase still bound, per cent of control [30]: 100%
kinase still bound, per cent of control [31]: 6.8%
kinase still bound, per cent of control [32]: 14%
kinase still bound, per cent of control [33]: 100%
kinase still bound, per cent of control [34]: 50%
kinase still bound, per cent of control [35]: 100%
kinase still bound, per cent of control [36]: 64%
kinase still bound, per cent of control [37]: 92%
kinase still bound, per cent of control [38]: 89%
kinase still bound, per cent of control [39]: 68%
kinase still bound, per cent of control [40]: 100%
kinase still bound, per cent of control [41]: 100%
kinase still bound, per cent of control [42]: 100%
kinase still bound, per cent of control [43]: 100%
